These results are taken from BindingDB's records for doi:10.1074/jbc.M113.487736 (Universität Duisburg-Essen, 2014).

Experiment [1] addresses T1, NAD-dependent protein deacetylase sirtuin-2 (Homo sapiens, UniProt Q8IXJ6).
T1 sequence (Q8IXJ6 whole entry): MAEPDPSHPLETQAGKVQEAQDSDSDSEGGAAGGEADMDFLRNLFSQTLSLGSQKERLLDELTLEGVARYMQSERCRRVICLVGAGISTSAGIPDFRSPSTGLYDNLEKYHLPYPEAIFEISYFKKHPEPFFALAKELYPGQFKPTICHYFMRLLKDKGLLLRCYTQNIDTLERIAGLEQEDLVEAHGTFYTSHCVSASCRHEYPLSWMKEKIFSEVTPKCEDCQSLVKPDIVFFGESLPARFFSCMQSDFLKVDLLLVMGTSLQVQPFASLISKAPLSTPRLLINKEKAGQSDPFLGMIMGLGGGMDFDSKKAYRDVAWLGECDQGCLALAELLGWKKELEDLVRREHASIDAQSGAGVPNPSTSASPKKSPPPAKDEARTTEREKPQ
Briefly: Fluorescence-Based Deacetylation Assay. As to conditions: pH 8; 37 °C. On the procedure: (§1) Deacetylation assays using Boc(Ac)Lys-7-amino-4-methyl-coumarin (MAL; Bachem, Bubendorf, Switzerland) as a substrate were performed in a volume of 20 μl in 384-well low volume plates (Eppendorf) in a reaction buffer containing 25 mM Tris-HCl (pH 8.0), 137 mM NaCl, 1 mM MgCl2, 2.7 mM KCl, 1 mg/ml BSA, and 1mM DTT. Enzymes were added at different concentrations to wells in a volume of 10 μl and were preincubated with inhibitors (volume 1 μl, diluted in dimethyl sulfoxide) or with dimethyl sulfoxide as a control for 10 min at room temperature. Subsequently, 10 μl 2× concentrated substrate solution containing 200 μM MAL and 2 mM NAD+ was added to initiate the reaction, which was incubated at 37 °C for 4 h. This allowed for ~50% deacetylation of MAL. After incubation, 20 μl of trypsin solution (0.5 mg/ml) was added, and the trypsin cleavage reaction was allowed to proceed at 37 °C for 1 h. Fluorescence readings were obtained using a fluorescence reader(GENiosPro TECAN), with the excitation wavelength set to 360 nm and the emission set to 465 nm.

Experiment [2] deals with T2, NAD-dependent protein deacetylase sirtuin-1 (Homo sapiens, UniProt Q96EB6).
T2 sequence (Q96EB6 whole entry): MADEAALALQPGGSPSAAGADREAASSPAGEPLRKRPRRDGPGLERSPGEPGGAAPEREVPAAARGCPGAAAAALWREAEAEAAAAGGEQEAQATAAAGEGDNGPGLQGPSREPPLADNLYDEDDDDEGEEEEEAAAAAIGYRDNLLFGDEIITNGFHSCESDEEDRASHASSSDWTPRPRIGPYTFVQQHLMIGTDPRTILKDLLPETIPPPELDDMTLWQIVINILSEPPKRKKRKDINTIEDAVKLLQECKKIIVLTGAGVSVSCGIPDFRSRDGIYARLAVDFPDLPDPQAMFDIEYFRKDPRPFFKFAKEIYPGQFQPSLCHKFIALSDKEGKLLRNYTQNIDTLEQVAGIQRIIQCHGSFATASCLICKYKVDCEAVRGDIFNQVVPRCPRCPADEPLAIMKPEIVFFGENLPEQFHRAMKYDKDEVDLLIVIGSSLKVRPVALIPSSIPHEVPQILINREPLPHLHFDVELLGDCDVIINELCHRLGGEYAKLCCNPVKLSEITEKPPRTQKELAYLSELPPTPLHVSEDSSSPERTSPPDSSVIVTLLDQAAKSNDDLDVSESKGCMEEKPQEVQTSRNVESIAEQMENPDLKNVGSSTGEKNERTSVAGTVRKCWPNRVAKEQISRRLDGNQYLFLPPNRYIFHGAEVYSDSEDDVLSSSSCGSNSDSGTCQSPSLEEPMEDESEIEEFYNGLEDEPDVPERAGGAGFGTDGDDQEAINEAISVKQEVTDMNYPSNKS
The experiment in a line: Fluorescence-Based Deacetylation Assay. Conditions: pH 8; 37 °C. The protocol: as §1

As usually defined, the IC50 is the midpoint of a concentration-inhibition curve. A high value points to lower potency. Molecule `COCCCNC(=O)c1ccc2c(c1)C1C3CCC(C3)C1C(c1ccccc1)N2` (stereo not given) [AEM1 derivative, 1] showed an IC50 in experiment [1] of 18.7 µM.
Consider `NC(=O)c1ccc2c(c1)C1C3CCC(C3)C1C(c1ccccc1)N2` (stereo not given) [AEM1], for which the results for the IC50 in experiment [2] and in experiment [1] were 118 µM and 18.5 µM, respectively.
The like results for `O=C(NCc1cccnc1)c1ccc2c(c1)C1C3CCC(C3)C1C(c1ccccc1)N2` (stereo not given) [AEM2] were, in that order, greater than 100 µM and 3.8 µM.
